In test [1] the test system is larva of Spodoptera litura. As to the kind of experiment: Test against larva of Spodoptera litura (leaf dip, sweet potato leaves). The format is in vivo. Conditions: 20 ppm concentration of effective component; third instar larvae on treated sweet potato leaves; after 7 days; 25° C. On the procedure: Test against larva of Spodoptera litura
In order to make an appropriate formulation of an active compound 1 part by weight of the active compound was mixed with the above-mentioned amount of solvent containing the above-mentioned amount of emulsifier and the mixture was diluted with water to a prescribed concentration.
Leaves of sweet potato were soaked in the test agent diluted to a prescribed concentration with water, dried in the air and put in a dish of 9 cm diameter. 10 larvae of Spodoptera litura at the third instar were placed on the leaves and kept in a room at constant temperature of 25° C. After 2 and 4 days further leaves of sweet potato were added and after 7 days the number of dead larvae was counted and the rate of death was calculated.
In this test the results of 2 dishes at 1 section were averaged.

The subject of test [2] is larva of Cnaphalocrocis medinalis Guenee. In words: Test against larva of Cnaphalocrocis medinalis Guenee (systemic, root uptake by paddy rice). The settings on record: 20 ppm concentration of effective component; rice root parts in diluted solution, foliage fed to second instar larvae; after 7 days; 25° C. The format is in vivo. From the text: Test Against Larva of Cnaphalocrocis medinalis Guenee Root parts of paddy rice (variety: […]) cultivated to 4 to 5 leaf stage were put in a brown bottle filled with the diluted aqueous solution of the prescribed concentration of the active compound prepared in the same manner as in the above-mentioned Biological Test Example 1. Three days after the treatment with the agent, 1⁄3 amount of rice plant was collected and their foliage part was cut in 4 to 5 cm length, which were put in a dish with 9 cm diameter with a sheet of filter paper wetted with 2 mL of water. Five larvae of Cnaphalocrocis medinalis Guenee at the second instar were put in the dish which was placed in a room at constant temperature of 25° C. After 2 and 4 days, each rest (each 1⁄3 amount) of foliage parts of rice plant were cut in the same manner and added to the dish. After 7 days the number of dead larvae was counted and the rate of death was calculated. In this test the results of 2 dishes at 1 section were averaged.

Structures are written as SMILES.

Regarding `CSCC(C)NC(=O)c1c(OS(=O)(=O)C(F)(F)F)cccc1C(=O)Nc1ccc(C(F)(C(F)(F)F)C(F)(F)F)cc1C` (centres unmarked) [compound 21, N^1-(4-heptafluoroisopropyl-2-methylphenyl)-N^2-[1-methyl-2-(methylthio)ethyl]-3-trifluoromethanesulfonyloxyphthalamide], the rate of death in test [1] was determined as 100%.

As for `CSCC(C)NC(=O)c1c(OS(C)(=O)=O)cccc1C(=O)Nc1ccc(C(F)(C(F)(F)F)C(F)(F)F)cc1` (centres unmarked) [compound 5, N^1-(4-heptafluoroisopropylphenyl)-N^2-[1-methyl-2-(methylthio)ethyl]-3-methanesulfonyloxyphthalamide], the rate of death in test [1] and in test [2] was 100% throughout.

For `CSCC(C)(C)NC(=O)c1c(OS(C)(=O)=O)cccc1C(=O)Nc1ccc(C(F)(C(F)(F)F)C(F)(F)F)cc1C` [compound 10, N^2-[1,1-dimethyl-2-(methylthio)ethyl]-N^1-(4-heptafluoroisopropyl-2-methylphenyl)-3-methanesulfonyloxyphthalamide], the rate of death in test [1] and in test [2] was 100% in each case.

On to `CSCC(C)NC(=O)c1c(OS(C)(=O)=O)cccc1C(=O)Nc1ccc(C(F)(C(F)(F)F)C(F)(F)F)cc1C` (centres unmarked) [compound 7, N^1-(4-heptafluoroisopropyl-2-methylphenyl)-N^2-[1-methyl-2-(methylthio)-ethyl]-3-methanesulfonyloxyphthalamide], for which the rate of death in test [1] and in test [2] was 100% in each case.

Take `CCS(=O)(=O)Oc1cccc(C(=O)Nc2ccc(C(F)(C(F)(F)F)C(F)(F)F)cc2C)c1C(=O)NC(C)(C)CSC` [compound 17, N^2-[1,1-dimethyl-2-(methylthio)ethyl]-N^1-(4-heptafluoroisopropyl-2-methylphenyl)-3-ethanesulfonyloxyphthalamide]: the rate of death in test [1] is recorded as 100%.

As to `Cc1cc(C(F)(C(F)(F)F)C(F)(F)F)ccc1NC(=O)c1cccc(OS(C)(=O)=O)c1C(=O)NC(C)(C)C[S+](C)[O-]` (centres unmarked) [compound 11, N^2-[1,1-dimethyl-2-(methylsulfinyl)ethyl]-N^1-(4-heptafluoroisopropyl-2-methylphenyl)-3-methanesulfonyloxyphthalamide], the rate of death in test [1] and in test [2] was 100% throughout.

For `Cc1cc(C(F)(C(F)(F)F)C(F)(F)F)ccc1NC(=O)c1cccc(OS(C)(=O)=O)c1C(=O)NC(C)(C)CS(C)(=O)=O` [compound 12, N^2-[1,1-dimethyl-2-(methylsulfonyl)ethyl]-N^1-(4-heptafluoroisopropyl-2-methylphenyl)-3-methanesulfonyloxyphthalamide], the rate of death in test [1] and in test [2] was 100% each time.

With `Cc1cc(C(F)(C(F)(F)F)C(F)(F)F)ccc1NC(=O)c1cccc(OS(C)(=O)=O)c1C(=O)NC(C)C` [compound no. 1, N^1(4-heptafluoroisopropyl-2-methylphenyl)-N-2-isopropyl-3-methanesulfonyloxyphthalamide], the rate of death in test [1] and in test [2] was 100% each time.

In test [1], `CSCC(C)NC(=O)c1c(OS(C)(=O)=O)cccc1C(=O)Nc1ccc(OC(F)(F)F)cc1C` (centres unmarked) [compound 6, N^2-[1-methyl-2-(methylthio)ethyl]-N^1-(4-trifluoromethoxy-2-methylphenyl)-3-methanesulfonyloxyphthalamide] came in with a rate of death of 100%.

Consider `CSCC(C)(C)NC(=O)c1c(OS(C)(=O)=O)cccc1C(=O)Nc1ccc(Cl)c(Cl)c1Cl` [compound 24, N^2-[1,1-dimethyl-2-(methylthio)ethyl]-N^1-(2,3,4-trichlorophenyl)-3-methanesulfonyloxyphthalamide], for which the rate of death in test [1] was 100%.

Compound `CCS(=O)(=O)Oc1cccc(C(=O)Nc2ccc(C(F)(C(F)(F)F)C(F)(F)F)cc2C)c1C(=O)NC(C)CSC` (centres unmarked) [compound 14, N^1-(4-heptafluoroisopropyl-2-methylphenyl)-N^2-[1-methyl-2-(methylthio)ethyl]-3-ethanesulfonyloxyphthalamide] registered a rate of death in test [1] of 100%.

These data come from patent publication US7132455B2, “Phthalamide derivatives” (Bayer Cropscience AG, priority 2002, dated 2006).
